Marks after values point to notes of the source that are not given here.
What was measured:
[1] = tested on: patients suffering from schizophrenia; assay: CATIE study: change in total PANSS (LOCF) by drug arm, segmented by OPRP genetic signature status; assay type: in vivo, human; set-up: key to Mean difference olanzapine vs. named drug, CATIE unsegemented / Mean difference olanzapine vs. named drug, CATIE OPRP+: difference in change in total PANSS score (LOCF); decrease = better response; details: for DELTA PANSS % (mean change in PANSS score from baseline to LOCF): more negative = greater improvement; for Mean difference olanzapine vs. named drug, CATIE OPRP+: positive = olanzapine inferior
Protocol: The CATIE study, a large federally funded clinical trial designed to assess the efficacy of antipsychotics in a real world setting, is a valuable resource for determining the role of genes in baseline psychopathology and drug response (Lieberman et al., 2005; Stroup et al., 2003). […] Additionally, whole genome SNP genotyping was performed for roughly half of the trial participants (Sullivan et al., 2008). Genotype and phenotype data for the CATIE trial were recently made available to qualified researchers through the NIMH Center for Collaborative Genetic Studies on Mental Disorders. The sample consisted of a total of 738 patients. For the present study, the inventors assigned OPRP status to 628 subjects, including 411 subjects of self-reported European ancestry and 217 subjects of self-reported African ancestry. Further details on the patient population are described in the study by Sullivan and coworkers (Sullivan et al., 2008). […] The design of the CATIE study has been described in detail by others (Lieberman et al., 2005; Stroup et al., 2003). […] Instead of entering into Phase II of the trial, subjects who switched from perphenazine entered Phase IB. […] Subjects who failed Phase IB then entered Phase II. A total of 738 subjects consented to provide DNA for genetic study. […] Only retrospective genetic analyses, judged to be exempt from human studies requirements by an IRB, were conducted in the current study. For the genetic analyses presented herein, the inventors combined and evaluated drug response data for both Phase I and Phase IB of the CATIE study. All tested patients were studied using well established clinical endpoints comparing baseline, intermediate, and last observation carried forward (LOCF) for the PANSS scores using CATIE data. LOCF analysis is a commonly used clinical endpoint for clinical trials for neuropsychiatric drugs, with particular changes in PANSS scores being used to indicate clinically significant response (Leucht et al., 2009). Using the clinical data from the CAIE trial, the inventors derived several different metrics used for quantifying response in clinical trials of antipsychotic medications. […] The greater the decrease in PANSS score, the better the clinical response. The most direct measure of clinical response is absolute change in PANSS score. In addition to absolute change, the improvement is often reported as a percentage change from baseline PANSS score. […] To examine the relationship of genotypes to drug response the inventors used the publicly available PLINK software (Purcell et al., 2007; available on the world wide web at pngu.mgh.harvard.edu/purcell/[…] Helix tree (Version 6.4.1; Golden Helix, Bozeman, Mont.). The inventors used Last observation Carry Forward (LOCF) delta PANSS values as a measure of response to antipsychotic treatment. […] The inventors refined the test further by conducting association analysis on using only those subjects that comprised the TT genotype of […]. […] Presence of the TT or TC genotypes of […] in individuals that comprised the TT genotype at […] indicates OPRP positive status. […] As mentioned previously, the mean change in absolute or percent PANSS provides an important measure of efficacy in patients undergoing antipsychotic treatments. Indeed, many pivotal trials in the psychosis field used absolute and/or percentage change in PANSS Score as the primary endpoint (Leucht et al., 2009). […] Therefore, in addition to examining a categorical definition of clinically significant response, the inventors determined the impact of segmentation by OPRP genetic signature status on the quantitative measure of clinical improvement-delta PANSS for LOCF.

[2] = tested on: patients suffering from schizophrenia; assay: Diagnostic performance of the OPRP test in the CATIE study for worsening symptoms (Delta PANSS ≧ 0); assay type: in vivo, human
Description: Several different measures of diagnostic performance can be used for comparing dichotomous outcomes. Two important metrics include percent positive agreement (PPA), a substitute for sensitivity, and percent negative agreement (PNA), a substitute for specificity.

[3] = tested on: patients suffering from schizophrenia; details: population not segmented by OPRP status; negative = greater reduction in PANSS; cited from earlier work
[4] = tested on: patients suffering from schizophrenia; details: weighted mean difference in PANSS score (absolute); negative = olanzapine superior; cited from earlier work
[5] = tested on: patients suffering from schizophrenia; details: vs first generation antipsychotics; Davis et al. (2003); cited from earlier work
[6] = olanzapine-treated OPRP+ group minus named comparator drug OPRP+ group, positive = poorer response to olanzapine
[7] = delta PANSS, negative = olanzapine superior
[8] = olanzapine OPRP positive versus drug OPRP positive

## Cc1cc2c(s1)Nc1ccccc1N=C2N1CCN(C)CC1 [Olanzapine]
[1]; OPRP Negative
  Number of individuals with change in total PANSS (LOCF) ≦−10% (responders): 73
  Number of individuals with change in total PANSS (LOCF) ≧−10%: 66
  Number of individuals with delta PANSS (LOCF) ≦0%: 113
  Number of individuals with delta PANSS (LOCF) ≧0% (worsening symptoms): 26
  Responders (change in PANSS of ≦−10%): 53%^*
  Worsening (delta PANSS ≧0%): 19%^*
[1]; OPRP Negative subjects
  DELTA PANSS % (mean change in PANSS score from baseline to LOCF): −11.6%
[1]; OPRP Positive
  Number of individuals with change in total PANSS (LOCF) ≦−10% (responders): 1
  Number of individuals with change in total PANSS (LOCF) ≧−10%: 25
  Number of individuals with delta PANSS (LOCF) ≦0%: 8
  Number of individuals with delta PANSS (LOCF) ≧0% (worsening symptoms): 18
  Responders (change in PANSS of ≦−10%): 4%
  Worsening (delta PANSS ≧0%): 69%
[1]; OPRP Positive subjects
  DELTA PANSS % (mean change in PANSS score from baseline to LOCF): 4.3%
[1]; OPRP Positive subjects, listed as olanzapine
  DELTA PANSS % (mean change in PANSS score from baseline to LOCF): +4.3%
[1]; olanzapine OPRP positive versus olanzapine OPRP negative
  CATIE Effect Size: 1.0^a
[1]; olanzapine OPRP positive versus olanzapine OPRP negative, listed as olanzapine
  CATIE Effect Size: 1.0
[1]; olanzapine OPRP+ minus olanzapine OPRP−
  Mean difference (95% CI) in delta PANSS: 15.9 (9.7 to 22.1)
[1]; olanzapine OPRP+ vs olanzapine OPRP−
  Effect size (mean difference / standard deviation): 1.0
[2]; OPRP Negative
  Non-Worsen (number of subjects): 113
  Worsen (number of subjects, Delta PANSS ≧ 0): 26
[2]; OPRP Positive
  Non-Worsen (number of subjects): 8
  Worsen (number of subjects, Delta PANSS ≧ 0): 18

## OCCN1CCN(CCCN2c3ccccc3Sc3ccc(Cl)cc32)CC1 [Perphenazine]
[1]; OPRP Negative
  Number of individuals with change in total PANSS (LOCF) ≦−10% (responders): 39
  Number of individuals with change in total PANSS (LOCF) ≧−10%: 71
  Number of individuals with delta PANSS (LOCF) ≦0%: 65
  Number of individuals with delta PANSS (LOCF) ≧0% (worsening symptoms): 45
  Responders (change in PANSS of ≦−10%): 35%^+
  Worsening (delta PANSS ≧0%): 41%^+++
[1]; OPRP Positive
  Number of individuals with change in total PANSS (LOCF) ≦−10% (responders): 5
  Number of individuals with change in total PANSS (LOCF) ≧−10%: 7
  Number of individuals with delta PANSS (LOCF) ≦0%: 9
  Number of individuals with delta PANSS (LOCF) ≧0% (worsening symptoms): 3
  Responders (change in PANSS of ≦−10%): 42%^^
  Worsening (delta PANSS ≧0%): 25%^
[1]; [6]
  Mean difference (95% CI) in delta PANSS: 12 (2.0 to 22.0)
[2]; OPRP Positive
  Non-Worsen (number of subjects): 9
  Worsen (number of subjects, Delta PANSS ≧ 0): 3

## OCCOCCN1CCN(C2=Nc3ccccc3Sc3ccccc32)CC1 [Quetiapine]
[3]
  Effect Size vs. Placebo: −0.42
[1]; OPRP Negative
  Number of individuals with change in total PANSS (LOCF) ≦−10% (responders): 48
  Number of individuals with change in total PANSS (LOCF) ≧−10%: 99
  Number of individuals with delta PANSS (LOCF) ≦0%: 95
  Number of individuals with delta PANSS (LOCF) ≧0% (worsening symptoms): 62
  Responders (change in PANSS of ≦−10%): 33%^+++
  Worsening (delta PANSS ≧0%): 42%^+++
[1]; OPRP Positive
  Number of individuals with change in total PANSS (LOCF) ≦−10% (responders): 4
  Number of individuals with change in total PANSS (LOCF) ≧−10%: 14
  Number of individuals with delta PANSS (LOCF) ≦0%: 9
  Number of individuals with delta PANSS (LOCF) ≧0% (worsening symptoms): 9
  Responders (change in PANSS of ≦−10%): 22%
  Worsening (delta PANSS ≧0%): 50%
[1]; [7]
  Mean difference olanzapine vs. named drug, CATIE OPRP−: −8.4
  Mean difference olanzapine vs. named drug, CATIE unsegemented: −6.2
[1]; delta PANSS
  Mean difference olanzapine vs. named drug, CATIE OPRP+: 5.5
[1]; [8]
  CATIE Effect Size: 0.3^b
[1]; [6]
  Mean difference (95% CI) in delta PANSS: 5.5 (−4.1 to 15.0)
[2]; OPRP Positive
  Non-Worsen (number of subjects): 9
  Worsen (number of subjects, Delta PANSS ≧ 0): 9
[4]
  Mean difference olanzapine vs. named drug, Meta-analysis: −3.7
[5]
  Effect Size vs. FGA: 0.01

## Cc1nc2n(c(=O)c1CCN1CCC(c3noc4cc(F)ccc34)CC1)CCCC2 [Risperidone]
[3]
  Effect Size vs. Placebo: −0.59
[2]; OPRP Positive
  Non-Worsen (number of subjects): 13
  Worsen (number of subjects, Delta PANSS ≧ 0): 7
[4]
  Mean difference olanzapine vs. named drug, Meta-analysis: −1.9
[5]
  Effect Size vs. FGA: −0.25

## O=C1Cc2cc(CCN3CCN(c4nsc5ccccc45)CC3)c(Cl)cc2N1 [Ziprasidone]
[3]
  Effect Size vs. Placebo: −0.48
[1]; OPRP Negative
  Number of individuals with change in total PANSS (LOCF) ≦−10% (responders): 16
  Number of individuals with change in total PANSS (LOCF) ≧−10%: 53
  Number of individuals with delta PANSS (LOCF) ≦0%: 35
  Number of individuals with delta PANSS (LOCF) ≧0% (worsening symptoms): 34
  Responders (change in PANSS of ≦−10%): 23%^++++
  Worsening (delta PANSS ≧0%): 49%^++++
[1]; OPRP Positive
  Number of individuals with change in total PANSS (LOCF) ≦−10% (responders): 2
  Number of individuals with change in total PANSS (LOCF) ≧−10%: 9
  Number of individuals with delta PANSS (LOCF) ≦0%: 7
  Number of individuals with delta PANSS (LOCF) ≧0% (worsening symptoms): 4
  Responders (change in PANSS of ≦−10%): 18%
  Worsening (delta PANSS ≧0%): 36%
[1]; [7]
  Mean difference olanzapine vs. named drug, CATIE unsegemented: −4.9
[1]; delta PANSS
  Mean difference olanzapine vs. named drug, CATIE OPRP+: 4.8
[1]; [8]
  CATIE Effect Size: 0.2^b
[1]; [6]
  Mean difference (95% CI) in delta PANSS: 4.8 (−2.7 to 12.3)
[2]; OPRP Positive
  Non-Worsen (number of subjects): 7
  Worsen (number of subjects, Delta PANSS ≧ 0): 4
[4]
  Mean difference olanzapine vs. named drug, Meta-analysis: −8.3
[5]
  Effect Size vs. FGA: −0.04

From patent US7932042B1, “Methods and compositions for the treatment of psychotic disorders through the identification of the olanzapine poor response predictor genetic signature” (Suregene, LLC, priority 2010, dated 2011)
